In PubChem BioAssay AID248 (DTP/NCI, 2004):
Where “and” joins values, the source holds several entries; their conditions need not be identical. Identical values can stand only once. Toxic doses and inconclusive results are not listed. No stated cut-off is given here; in the data, active means T/C of 150% or more; inactive means T/C below 125%. Square brackets hold non-standard residues; d marks the D form. Peptide text beside a SMILES is read from it. * marks the point of attachment. Cbz = O=C(OCc1ccccc1)*; Abu = CC[CH](N)C(=O)O; OBn = c1ccc(CO*)cc1

Test system: L1210 leukemia ip in BDF1 mice, survival T/C
Experiment: NCI In Vivo Anticancer Drug Screen. Data for tumor model L1210 Leukemia (intraperitoneal) in B6D2F1 (BDF1) mice
Conditions: endpoint: mean survival time, higher = longer survival
Method in brief: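 Mice bearing the transplanted tumor received compound or vehicle. Survival of the treated group was divided by that of the vehicle-treated control group to give the ratio.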

[1] = dose: 50.0 mg/kg/injection, schedule: Q01DX009 (ip), vehicle: saline
[2] = dose: 100.0 mg/kg/injection, schedule: Q01DX009 (ip), vehicle: saline
[3] = dose: 200.0 mg/kg/injection, schedule: Q01DX009 (ip), vehicle: saline
[4] = dose: 100.0 mg/kg/injection, schedule: Q01DX009 (ip), vehicle: Klucel (hydroxypropylcellulose) (HPC)
[5] = dose: 200.0 mg/kg/injection, schedule: Q01DX009 (ip), vehicle: Klucel (hydroxypropylcellulose) (HPC)
[6] = dose: 400.0 mg/kg/injection, schedule: Q01DX009 (ip), vehicle: Klucel (hydroxypropylcellulose) (HPC)
[7] = dose: 100.0 mg/kg/injection, schedule: Q04DX002 (ip), vehicle: Klucel (hydroxypropylcellulose) (HPC)
[8] = dose: 200.0 mg/kg/injection, schedule: Q04DX002 (ip), vehicle: Klucel (hydroxypropylcellulose) (HPC)
[9] = dose: 400.0 mg/kg/injection, schedule: Q04DX002 (ip), vehicle: Klucel (hydroxypropylcellulose) (HPC)
[10] = dose: 100.0 mg/kg/injection, schedule: Q01DX001 (ip), vehicle: saline
[11] = dose: 200.0 mg/kg/injection, schedule: Q01DX001 (ip), vehicle: saline
[12] = dose: 400.0 mg/kg/injection, schedule: Q01DX001 (ip), vehicle: saline
[13] = dose: 100.0 mg/kg/injection, schedule: Q04DX003 (ip), vehicle: saline with Tween-80
[14] = dose: 200.0 mg/kg/injection, schedule: Q04DX003 (ip), vehicle: saline with Tween-80
[15] = dose: 400.0 mg/kg/injection, schedule: Q04DX003 (ip), vehicle: saline with Tween-80
[16] = dose: 100.0 mg/kg/injection, schedule: Q04DX003 (ip), vehicle: Klucel (hydroxypropylcellulose) (HPC)
[17] = dose: 50.0 mg/kg/injection, schedule: Q01DX001 (ip), vehicle: saline
[18] = dose: 100.0 mg/kg/injection, schedule: Q04DX003 (ip), vehicle: saline
[19] = dose: 100.0 mg/kg/injection, schedule: Q01DX001 (ip), vehicle: carboxymethylcellulose (CMC)
[20] = dose: 200.0 mg/kg/injection, schedule: Q01DX001 (ip), vehicle: carboxymethylcellulose (CMC)
[21] = dose: 400.0 mg/kg/injection, schedule: Q01DX001 (ip), vehicle: carboxymethylcellulose (CMC)
[22] = dose: 200.0 mg/kg/injection, schedule: Q01DX009 (ip), vehicle: saline with Tween-80

Measured: T/C

C/C=C/C(=O)OCCN(CC)CC
inactive: [1] 103 % of control | [2] 103 % of control | [3] 100 % of control

O=C(O)CCC(CC(=O)O)c1ccccc1 (configuration not stated)
inactive: [4] 97 % of control | [5] 96 % of control | [6] 93 % of control

Cn1cnc2cc(N=Cc3ccc(N(CCCl)CCCl)cc3Cl)ccc21
inactive: [7] 108 % of control | [8] 101 % of control | [9] 101 % of control

COc1ccc(C2=NNC(=O)C2(C)Br)cc1 (configuration not stated)
inactive: [10] 105 % of control | [11] 91 % of control | [12] 100 % of control

CCCCCCCCCCCCCCCCCOC(=O)CCCCCCCCCCCCC
inactive: [4] 91 % of control | [13] 90 % of control | [5] 96 % of control | [14] 88 % of control | [6] 98 % of control | [15] 92 % of control

CCC(NC(=O)OCc1ccccc1)C(=O)NC(C(=O)OCc1ccccc1)C(C)CC (configuration not stated) (Cbz-[Abu]-Ile-OBn; configuration not given here)
inactive: [13] 92 % of control | [14] 92 % of control | [15] 93 % of control

COc1ccc(/C=N/NC(=O)c2ccccc2O)cc1
inactive: [4] 98 % of control | [5] 96 % of control | [6] 112 % of control

COC(=O)c1ccc(C(=O)OC)c(=O)[nH]1
inactive: [4] 109 % of control | [16] 103 % of control | [5] 101 % of control | dose: 200.0 mg/kg/injection, schedule: Q04DX003 (ip), vehicle: Klucel (hydroxypropylcellulose) (HPC) 102 % of control | [6] 102 % of control | dose: 400.0 mg/kg/injection, schedule: Q04DX003 (ip), vehicle: Klucel (hydroxypropylcellulose) (HPC) 97 % of control

CN1CCN(C(=O)C2CCCCC2C(=O)O)CC1 (configuration not stated)
inactive: dose: 100.0 mg/kg/injection, schedule: Q04DX002 (ip), vehicle: saline 107 % of control | dose: 200.0 mg/kg/injection, schedule: Q04DX002 (ip), vehicle: saline 107 % of control | dose: 400.0 mg/kg/injection, schedule: Q04DX002 (ip), vehicle: saline 96 % of control

Cc1cc2nncn2c2ccccc12
inactive: [17] 103 % of control | [10] 101 % of control | [11] 101 % of control

CCN(CC)CC(N)=O
inactive: [18] 103 % of control | dose: 200.0 mg/kg/injection, schedule: Q04DX003 (ip), vehicle: saline 103 % of control | dose: 400.0 mg/kg/injection, schedule: Q04DX003 (ip), vehicle: saline 111 % of control

Cc1ccccc1N=NN(C)C
inactive: [19] 106 % of control | [20] 106 % of control

O=C(OC(c1c(Cl)cccc1Cl)c1nccc2ccccc12)c1ccccc1 (configuration not stated)
inactive: dose: 100.0 mg/kg/injection, schedule: Q01DX001 (ip), vehicle: steriod suspending solution 95 % of control | dose: 200.0 mg/kg/injection, schedule: Q01DX001 (ip), vehicle: steriod suspending solution 97 % of control | dose: 400.0 mg/kg/injection, schedule: Q01DX001 (ip), vehicle: steriod suspending solution 88 % of control

CC1(C)OC(COC(=O)c2ccccc2)C2OC(C)(C)OC(COC(=O)c3ccccc3)C2O1 (configuration not stated)
inactive: [19] 93 % of control | [20] 90 % of control | [21] 95 % of control

[Cl][Co][Cl].[NH-]CCC[NH-].[NH-]CCC[NH-]
inactive: [18] 109 % of control

COC(=O)c1ccc(C(=O)CC(=O)c2ccccc2)cc1.COC(=O)c1ccc(C(=O)CC(=O)c2ccccc2)cc1.COC(=O)c1ccc(C(=O)CC(=O)c2ccccc2)cc1.COC(=O)c1ccc(C(=O)CC(=O)c2ccccc2)cc1.COC(=O)c1ccc(C(=O)CC(=O)c2ccccc2)cc1.[Th]
inactive: dose: 25.0 mg/kg/injection, schedule: Q01DX005 (ip), vehicle: Klucel (hydroxypropylcellulose) (HPC) 89 % of control | dose: 25.0 mg/kg/injection, schedule: Q01DX009 (ip), vehicle: Klucel (hydroxypropylcellulose) (HPC) 100 % of control | dose: 50.0 mg/kg/injection, schedule: Q01DX005 (ip), vehicle: Klucel (hydroxypropylcellulose) (HPC) 93 % of control | dose: 50.0 mg/kg/injection, schedule: Q01DX009 (ip), vehicle: Klucel (hydroxypropylcellulose) (HPC) 100 % of control | dose: 100.0 mg/kg/injection, schedule: Q01DX005 (ip), vehicle: Klucel (hydroxypropylcellulose) (HPC) 93 % of control and 89 % of control | [4] 93 % of control | [7] 96 % of control | [8] 100 % of control | [9] 93 % of control

CCc1cc(C)cc(CC)c1N
inactive: [4] 104 % of control | [5] 90 % of control

c1cnc2c(c1)CCCC2
inactive: dose: 50.0 mg/kg/injection, schedule: Q01DX009 (ip), vehicle: saline with Tween-80 86 % of control | [22] 86 % of control

Nc1cc(=O)[nH]c(=S)n1-c1ccc(Br)cc1
inactive: [17] 93 % of control | [10] 102 % of control | [11] 93 % of control | [12] 108 % of control

O=NN(CCCl)C(=O)NN1CCCCCC1
inactive: dose: 15.0 mg/kg/injection, schedule: Q01DX001 (ip), vehicle: carboxymethylcellulose (CMC) 101 % of control | dose: 30.0 mg/kg/injection, schedule: Q01DX001 (ip), vehicle: carboxymethylcellulose (CMC) 101 % of control

COC(=O)/C=C/C=C(c1ccccc1)c1ccccc1
inactive: [19] 93 % of control | [20] 102 % of control | [21] 102 % of control

N#CC1=C(N)CCP(c2ccccc2)C1 (configuration not stated)
inactive: [13] 94 % of control | [14] 97 % of control | [15] 100 % of control

COc1ccc(NC(=O)Oc2cccc(C(F)(F)F)c2)c(Cl)c1
inactive: dose: 100.0 mg/kg/injection, schedule: Q01DX009 (ip), vehicle: saline with Tween-80 96 % of control | [22] 97 % of control | dose: 400.0 mg/kg/injection, schedule: Q01DX009 (ip), vehicle: saline with Tween-80 94 % of control

CCCCCCCCCCCCCCCCCC(=O)[O][Pb]([CH3])([CH3])[CH3]
inactive: dose: 25.0 mg/kg/injection, schedule: Q04DX002 (ip), vehicle: Klucel (hydroxypropylcellulose) (HPC) 97 % of control

CNC(=S)N/N=C/C(=N\NC(=S)NC)C(O)C(O)C(O)C(O)CO (configuration not stated)
inactive: [1] 100 % of control | [10] 100 % of control | [2] 91 % of control | [11] 97 % of control | [3] 100 % of control

COc1ccc(C(=O)N/N=C/c2ccccc2)cc1
inactive: [17] 102 % of control | [10] 98 % of control | [11] 98 % of control | [12] 98 % of control

C=C1C(=O)OC2/C=C(/CO)C3OC3C3OC3(C)CC(OC(=O)/C(C)=C\COC(C)=O)C12 (configuration not stated)
inactive: dose: 25.0 mg/kg/injection, schedule: Q04DX003 (ip), vehicle: Klucel (hydroxypropylcellulose) (HPC) 98 % of control | dose: 50.0 mg/kg/injection, schedule: Q04DX003 (ip), vehicle: Klucel (hydroxypropylcellulose) (HPC) 104 % of control | [16] 94 % of control and 89 % of control

C[Se]c1ncnc2c1ccn2C1OC(CO)C(O)C1O (configuration not stated)
inactive: dose: 12.5 mg/kg/injection, schedule: Q01DX005 (ip), vehicle: saline 104 % of control | dose: 25.0 mg/kg/injection, schedule: Q01DX005 (ip), vehicle: saline 106 % of control | dose: 50.0 mg/kg/injection, schedule: Q01DX005 (ip), vehicle: saline 102 % of control
